Laboratory results from article PMC7690782, “Liver-Targeting Class I Selective Histone Deacetylase Inhibitors Potently Suppress Hepatocellular Tumor Growth as Standalone Agents” (Cancers, 2020).
pIC50: −log10 of the molar value.

What was measured:
Test in all cases: Fluor de Lys fluorescence deacetylase inhibition assay
Type in all cases: biochemical
Details in all cases: read-out: 1 (IC50)
[1] = biological target: T1, HDAC4 (Homo sapiens, UniProt P56524)
T1 construct: enzyme of BPS Bioscience contract assay
From the text: Fluor de Lys fluorescence deacetylase inhibition assay on HDAC4

[2] = biological target: T2, HDAC7 (Homo sapiens, UniProt Q8WUI4)
T2 construct: enzyme of BPS Bioscience contract assay
T2 sequence (Q8WUI4 518-952 limits assumed): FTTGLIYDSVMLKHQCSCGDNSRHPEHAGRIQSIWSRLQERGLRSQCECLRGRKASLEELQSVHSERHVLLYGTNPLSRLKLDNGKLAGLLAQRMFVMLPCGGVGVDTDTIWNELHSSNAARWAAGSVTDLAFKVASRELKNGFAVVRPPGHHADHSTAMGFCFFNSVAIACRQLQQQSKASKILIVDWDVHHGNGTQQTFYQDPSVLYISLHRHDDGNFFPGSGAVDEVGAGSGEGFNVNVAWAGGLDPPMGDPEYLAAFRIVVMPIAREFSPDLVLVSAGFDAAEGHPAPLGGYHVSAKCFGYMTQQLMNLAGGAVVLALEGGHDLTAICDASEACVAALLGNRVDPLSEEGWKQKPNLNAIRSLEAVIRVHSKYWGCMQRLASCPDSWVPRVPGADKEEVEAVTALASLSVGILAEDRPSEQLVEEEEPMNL
From the text: Fluor de Lys fluorescence deacetylase inhibition assay on HDAC7

[3] = biological target: T3, HDAC6 (Homo sapiens, UniProt Q9UBN7)
T3 construct: enzyme of BPS Bioscience contract assay
T3 sequence (Q9UBN7 1-1215): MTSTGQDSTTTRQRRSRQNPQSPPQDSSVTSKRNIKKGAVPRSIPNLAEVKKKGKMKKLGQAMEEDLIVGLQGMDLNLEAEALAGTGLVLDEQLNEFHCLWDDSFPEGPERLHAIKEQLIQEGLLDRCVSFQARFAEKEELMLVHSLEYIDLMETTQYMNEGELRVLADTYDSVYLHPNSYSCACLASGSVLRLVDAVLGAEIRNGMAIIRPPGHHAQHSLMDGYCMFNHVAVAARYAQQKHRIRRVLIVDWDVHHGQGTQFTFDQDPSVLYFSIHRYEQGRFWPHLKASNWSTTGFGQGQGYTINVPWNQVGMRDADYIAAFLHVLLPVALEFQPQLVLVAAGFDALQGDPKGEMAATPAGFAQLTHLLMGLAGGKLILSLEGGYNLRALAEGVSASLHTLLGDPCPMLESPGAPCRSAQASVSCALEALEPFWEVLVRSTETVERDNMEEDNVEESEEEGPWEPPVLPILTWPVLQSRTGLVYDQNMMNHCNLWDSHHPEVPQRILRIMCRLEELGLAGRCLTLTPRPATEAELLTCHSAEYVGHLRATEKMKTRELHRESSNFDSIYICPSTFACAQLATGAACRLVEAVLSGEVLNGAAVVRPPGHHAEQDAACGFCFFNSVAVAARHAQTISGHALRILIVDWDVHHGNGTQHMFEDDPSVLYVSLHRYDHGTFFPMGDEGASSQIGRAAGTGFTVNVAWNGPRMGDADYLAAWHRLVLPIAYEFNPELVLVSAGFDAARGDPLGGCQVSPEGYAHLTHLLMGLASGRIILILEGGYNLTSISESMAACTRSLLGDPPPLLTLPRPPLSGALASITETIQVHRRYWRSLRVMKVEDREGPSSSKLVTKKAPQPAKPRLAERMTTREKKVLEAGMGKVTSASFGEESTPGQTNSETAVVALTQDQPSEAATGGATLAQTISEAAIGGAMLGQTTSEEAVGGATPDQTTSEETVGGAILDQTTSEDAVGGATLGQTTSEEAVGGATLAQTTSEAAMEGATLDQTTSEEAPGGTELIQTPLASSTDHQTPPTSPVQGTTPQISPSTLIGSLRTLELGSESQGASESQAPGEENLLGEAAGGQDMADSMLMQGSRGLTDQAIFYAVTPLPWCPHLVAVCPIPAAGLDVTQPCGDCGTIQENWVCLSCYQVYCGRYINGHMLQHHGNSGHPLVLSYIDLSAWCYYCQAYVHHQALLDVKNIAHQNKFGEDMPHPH
From the text: Fluor de Lys fluorescence deacetylase inhibition assay on HDAC6

[4] = biological target: T4, HDAC9 (Homo sapiens, UniProt Q9UKV0)
T4 construct: enzyme of BPS Bioscience contract assay
From the text: Fluor de Lys fluorescence deacetylase inhibition assay on HDAC9

[5] = biological target: T5, HDAC10 (Homo sapiens, UniProt Q969S8)
T5 construct: enzyme of BPS Bioscience contract assay
T5 sequence (Q969S8 1-669): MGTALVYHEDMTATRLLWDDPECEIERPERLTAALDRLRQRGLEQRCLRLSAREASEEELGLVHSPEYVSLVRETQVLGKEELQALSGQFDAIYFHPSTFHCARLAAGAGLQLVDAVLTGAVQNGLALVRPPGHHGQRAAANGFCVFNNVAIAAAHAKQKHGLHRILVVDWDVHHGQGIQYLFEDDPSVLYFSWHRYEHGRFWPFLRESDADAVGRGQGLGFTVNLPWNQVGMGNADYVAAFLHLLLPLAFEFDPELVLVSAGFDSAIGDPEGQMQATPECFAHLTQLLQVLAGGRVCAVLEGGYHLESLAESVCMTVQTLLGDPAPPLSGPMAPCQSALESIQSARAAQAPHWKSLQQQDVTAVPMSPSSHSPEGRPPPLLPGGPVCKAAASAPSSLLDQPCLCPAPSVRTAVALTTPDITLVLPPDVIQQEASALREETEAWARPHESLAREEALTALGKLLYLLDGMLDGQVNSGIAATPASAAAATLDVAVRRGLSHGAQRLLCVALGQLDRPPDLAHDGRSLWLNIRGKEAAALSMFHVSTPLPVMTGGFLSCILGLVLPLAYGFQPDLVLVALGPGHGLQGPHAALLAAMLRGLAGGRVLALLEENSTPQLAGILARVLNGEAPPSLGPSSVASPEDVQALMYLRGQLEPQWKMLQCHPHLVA
From the text: Fluor de Lys fluorescence deacetylase inhibition assay on HDAC10

[6] = biological target: T6, HDAC1 (Homo sapiens, UniProt Q13547)
T6 construct: enzyme of BPS Bioscience contract assay
From the text: Fluor de Lys fluorescence deacetylase inhibition assay on HDAC1

[7] = biological target: T7, HDAC11 (Homo sapiens, UniProt Q96DB2)
T7 construct: enzyme of BPS Bioscience contract assay
T7 sequence (Q96DB2 1-347): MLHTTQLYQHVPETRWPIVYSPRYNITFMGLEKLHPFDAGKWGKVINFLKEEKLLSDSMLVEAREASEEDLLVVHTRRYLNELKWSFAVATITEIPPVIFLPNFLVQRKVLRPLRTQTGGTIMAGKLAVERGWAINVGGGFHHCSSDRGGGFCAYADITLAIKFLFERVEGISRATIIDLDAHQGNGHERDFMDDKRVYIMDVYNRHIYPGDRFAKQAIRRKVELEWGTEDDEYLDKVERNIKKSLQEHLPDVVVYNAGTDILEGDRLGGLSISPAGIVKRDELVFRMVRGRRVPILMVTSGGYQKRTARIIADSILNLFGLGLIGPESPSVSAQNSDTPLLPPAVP
From the text: Fluor de Lys fluorescence deacetylase inhibition assay on HDAC11

[8] = biological target: T8, HDAC8 (Homo sapiens, UniProt Q9BY41)
T8 construct: enzyme of BPS Bioscience contract assay
T8 sequence (Q9BY41 1-377): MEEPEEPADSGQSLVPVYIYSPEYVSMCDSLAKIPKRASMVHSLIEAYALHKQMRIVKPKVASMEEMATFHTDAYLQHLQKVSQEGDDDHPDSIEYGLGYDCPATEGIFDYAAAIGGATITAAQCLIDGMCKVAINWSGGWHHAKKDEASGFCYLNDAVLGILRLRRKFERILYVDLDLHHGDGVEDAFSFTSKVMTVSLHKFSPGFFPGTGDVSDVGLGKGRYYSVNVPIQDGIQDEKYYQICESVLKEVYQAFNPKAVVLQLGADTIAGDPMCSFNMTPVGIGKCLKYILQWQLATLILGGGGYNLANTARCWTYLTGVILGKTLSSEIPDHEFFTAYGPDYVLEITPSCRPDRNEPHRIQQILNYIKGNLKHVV
From the text: Fluor de Lys fluorescence deacetylase inhibition assay on HDAC8

[9] = biological target: T9, HDAC5 (Homo sapiens, UniProt Q9UQL6)
T9 construct: enzyme of BPS Bioscience contract assay
From the text: Fluor de Lys fluorescence deacetylase inhibition assay on HDAC5

[10] = biological target: T10, HDAC2 (Homo sapiens, UniProt Q92769)
T10 construct: enzyme of BPS Bioscience contract assay
From the text: Fluor de Lys fluorescence deacetylase inhibition assay on HDAC2

T1 sequence (P56524 627-1084 limits assumed): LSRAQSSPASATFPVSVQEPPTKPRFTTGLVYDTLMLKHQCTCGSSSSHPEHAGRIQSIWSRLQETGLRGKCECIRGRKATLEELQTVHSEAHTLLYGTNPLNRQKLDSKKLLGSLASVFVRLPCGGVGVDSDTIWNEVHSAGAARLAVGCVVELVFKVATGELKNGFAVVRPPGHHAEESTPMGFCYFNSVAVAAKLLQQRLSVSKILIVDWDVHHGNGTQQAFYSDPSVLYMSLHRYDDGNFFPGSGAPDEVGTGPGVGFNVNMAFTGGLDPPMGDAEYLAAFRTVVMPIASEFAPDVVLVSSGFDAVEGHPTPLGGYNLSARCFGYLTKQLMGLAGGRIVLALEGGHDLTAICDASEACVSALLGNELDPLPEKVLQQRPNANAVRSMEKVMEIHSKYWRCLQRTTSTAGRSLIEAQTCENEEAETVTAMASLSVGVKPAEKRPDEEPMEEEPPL
T10 sequence (Q92769 whole entry): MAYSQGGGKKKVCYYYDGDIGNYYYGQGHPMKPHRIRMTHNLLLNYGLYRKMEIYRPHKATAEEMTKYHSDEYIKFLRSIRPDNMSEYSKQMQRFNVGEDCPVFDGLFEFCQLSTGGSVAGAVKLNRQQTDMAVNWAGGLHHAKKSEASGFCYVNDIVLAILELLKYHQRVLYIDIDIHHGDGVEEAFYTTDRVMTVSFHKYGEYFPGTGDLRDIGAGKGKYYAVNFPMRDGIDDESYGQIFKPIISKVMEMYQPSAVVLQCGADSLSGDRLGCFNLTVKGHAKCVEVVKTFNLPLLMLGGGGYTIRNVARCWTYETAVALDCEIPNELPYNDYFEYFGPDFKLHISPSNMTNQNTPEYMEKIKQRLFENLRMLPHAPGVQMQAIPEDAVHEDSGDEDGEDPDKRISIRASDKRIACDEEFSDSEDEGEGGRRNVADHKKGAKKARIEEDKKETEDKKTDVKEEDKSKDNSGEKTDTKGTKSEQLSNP
T6 sequence (Q13547 whole entry): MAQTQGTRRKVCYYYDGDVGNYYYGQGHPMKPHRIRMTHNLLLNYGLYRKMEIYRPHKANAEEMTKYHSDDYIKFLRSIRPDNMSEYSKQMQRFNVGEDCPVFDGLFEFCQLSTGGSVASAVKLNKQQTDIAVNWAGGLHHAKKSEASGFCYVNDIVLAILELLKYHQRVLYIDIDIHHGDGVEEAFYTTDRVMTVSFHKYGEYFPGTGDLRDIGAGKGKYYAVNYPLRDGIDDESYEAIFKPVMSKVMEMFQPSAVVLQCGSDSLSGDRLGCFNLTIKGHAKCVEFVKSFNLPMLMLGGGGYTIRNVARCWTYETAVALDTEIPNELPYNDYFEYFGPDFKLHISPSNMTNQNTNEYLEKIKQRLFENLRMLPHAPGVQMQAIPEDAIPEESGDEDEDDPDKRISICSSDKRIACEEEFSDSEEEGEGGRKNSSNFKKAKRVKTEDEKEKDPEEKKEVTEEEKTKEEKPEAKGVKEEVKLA
T4 sequence (Q9UKV0 whole entry): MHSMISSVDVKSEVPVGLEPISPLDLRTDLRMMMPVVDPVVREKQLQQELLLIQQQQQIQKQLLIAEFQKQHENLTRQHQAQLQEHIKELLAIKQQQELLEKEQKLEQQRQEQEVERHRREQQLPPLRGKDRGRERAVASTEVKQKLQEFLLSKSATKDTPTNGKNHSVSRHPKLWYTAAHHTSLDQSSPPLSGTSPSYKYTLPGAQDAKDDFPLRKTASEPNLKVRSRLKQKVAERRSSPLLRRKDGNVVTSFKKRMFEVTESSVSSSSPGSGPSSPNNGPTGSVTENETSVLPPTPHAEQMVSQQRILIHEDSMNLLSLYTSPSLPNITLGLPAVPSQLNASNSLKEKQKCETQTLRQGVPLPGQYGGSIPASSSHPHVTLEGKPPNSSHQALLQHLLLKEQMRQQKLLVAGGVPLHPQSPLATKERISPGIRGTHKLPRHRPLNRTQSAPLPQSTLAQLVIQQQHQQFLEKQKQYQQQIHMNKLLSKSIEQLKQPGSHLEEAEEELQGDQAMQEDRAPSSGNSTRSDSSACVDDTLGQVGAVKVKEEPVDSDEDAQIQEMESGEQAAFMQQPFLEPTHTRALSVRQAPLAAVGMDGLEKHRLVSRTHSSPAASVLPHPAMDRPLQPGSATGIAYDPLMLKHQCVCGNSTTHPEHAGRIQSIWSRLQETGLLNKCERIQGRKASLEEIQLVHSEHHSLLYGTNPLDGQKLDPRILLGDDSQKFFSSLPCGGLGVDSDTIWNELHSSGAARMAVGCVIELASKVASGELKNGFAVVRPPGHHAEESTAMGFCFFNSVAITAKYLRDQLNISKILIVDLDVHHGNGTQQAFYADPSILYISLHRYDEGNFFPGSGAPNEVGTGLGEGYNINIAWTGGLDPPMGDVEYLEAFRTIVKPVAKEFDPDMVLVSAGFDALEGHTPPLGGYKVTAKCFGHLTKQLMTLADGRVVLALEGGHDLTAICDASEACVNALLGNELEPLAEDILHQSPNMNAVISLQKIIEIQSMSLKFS
T9 sequence (Q9UQL6 whole entry): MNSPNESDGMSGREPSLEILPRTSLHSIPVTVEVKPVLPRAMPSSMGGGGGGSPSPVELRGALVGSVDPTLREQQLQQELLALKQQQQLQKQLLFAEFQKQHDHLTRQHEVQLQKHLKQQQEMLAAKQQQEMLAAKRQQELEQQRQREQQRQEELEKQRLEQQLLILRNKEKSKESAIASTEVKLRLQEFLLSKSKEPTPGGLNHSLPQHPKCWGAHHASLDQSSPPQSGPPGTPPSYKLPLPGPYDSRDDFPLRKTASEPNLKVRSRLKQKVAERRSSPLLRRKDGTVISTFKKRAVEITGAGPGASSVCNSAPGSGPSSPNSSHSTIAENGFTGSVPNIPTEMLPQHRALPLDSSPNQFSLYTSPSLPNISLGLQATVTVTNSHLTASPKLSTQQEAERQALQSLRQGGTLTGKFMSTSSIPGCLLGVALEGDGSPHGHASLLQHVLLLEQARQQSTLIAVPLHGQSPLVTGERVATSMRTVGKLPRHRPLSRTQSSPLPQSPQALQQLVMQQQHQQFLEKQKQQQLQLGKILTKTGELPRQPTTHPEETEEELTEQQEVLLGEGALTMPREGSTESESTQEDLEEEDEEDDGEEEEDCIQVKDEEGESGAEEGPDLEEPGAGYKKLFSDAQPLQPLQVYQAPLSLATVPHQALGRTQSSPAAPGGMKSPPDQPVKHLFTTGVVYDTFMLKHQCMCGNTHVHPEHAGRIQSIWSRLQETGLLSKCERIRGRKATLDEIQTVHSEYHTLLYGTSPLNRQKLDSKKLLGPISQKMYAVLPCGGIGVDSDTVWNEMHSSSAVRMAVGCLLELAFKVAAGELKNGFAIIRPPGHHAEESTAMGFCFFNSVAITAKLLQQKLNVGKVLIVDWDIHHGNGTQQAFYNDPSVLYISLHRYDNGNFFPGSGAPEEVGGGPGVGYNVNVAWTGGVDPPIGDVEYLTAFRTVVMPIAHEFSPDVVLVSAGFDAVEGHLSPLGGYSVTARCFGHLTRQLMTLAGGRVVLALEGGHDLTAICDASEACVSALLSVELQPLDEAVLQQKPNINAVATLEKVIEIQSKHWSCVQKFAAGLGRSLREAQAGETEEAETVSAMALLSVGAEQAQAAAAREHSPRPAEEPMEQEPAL

`CC[C@H]1OC(=O)[C@H](C)[C@@H](O[C@H]2C[C@@](C)(OC)[C@@H](O)[C@H](C)O2)[C@H](C)[C@@H](O[C@@H]2O[C@H](C)C[C@H](N(C)Cc3ccc(-c4cn(CCCCCCC(=O)NO)nn4)cc3)[C@H]2O)[C@](C)(O)C[C@@H](C)CN(C)[C@H](C)[C@@H](O)[C@]1(C)O` [compound 1] showed a pIC50 [1] of 5.72, a pIC50 [2] of 5.58 and a pIC50 [3] of 8.77. For the same compound, the pIC50 [4] was 5.16, the pIC50 [5] was 8.35 and the pIC50 [6] was 8.57. The pIC50 [7] was 5.13, the pIC50 [8] was 6.08 and the pIC50 [9] was 5.75. For the same compound, the pIC50 [10] was 8.09.
